Active and inactive are the calls of the source. No cut-off for these calls is given here.
Experiments:
[1] = Binding affinity to GABAA receptor by radioligand displacement assay
[2] = molecular target: Sodium-dependent dopamine transporter (Homo sapiens, UniProt Q01959); assay: Binding affinity to human dopamine transporter by radioligand displacement assay
Brain = assay: Protein binding in C57/6J mouse brain homogenates at 20 mg/kg, sc by equilibrium dialysis; assay type: ADME, organism-based; set-up: dose 20 mg/kg, route subcutaneous; settings: in vivo
[3] = molecular target: T1, Muscarinic acetylcholine receptor M5 (Homo sapiens, UniProt P08912); assay: biochemical
T1 sequence (P08912 whole entry): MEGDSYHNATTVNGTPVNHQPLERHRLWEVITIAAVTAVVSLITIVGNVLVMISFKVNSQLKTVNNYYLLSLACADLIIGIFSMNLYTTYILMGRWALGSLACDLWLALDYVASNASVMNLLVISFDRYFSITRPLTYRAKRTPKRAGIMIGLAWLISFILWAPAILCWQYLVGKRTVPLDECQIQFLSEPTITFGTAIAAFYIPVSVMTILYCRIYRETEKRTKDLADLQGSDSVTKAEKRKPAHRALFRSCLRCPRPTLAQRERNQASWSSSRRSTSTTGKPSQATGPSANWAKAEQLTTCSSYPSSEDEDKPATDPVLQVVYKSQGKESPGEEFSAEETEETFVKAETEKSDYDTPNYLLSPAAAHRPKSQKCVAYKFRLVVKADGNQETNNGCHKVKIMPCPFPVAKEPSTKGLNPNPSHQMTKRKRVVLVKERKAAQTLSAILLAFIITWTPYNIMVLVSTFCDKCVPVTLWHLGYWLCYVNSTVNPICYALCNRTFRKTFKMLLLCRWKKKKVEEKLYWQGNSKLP
Description: Displacement of [3H]-4-DAMP from human muscarinic M5 receptor expressed in BHK-21 cells

[4] = molecular target: T2, Muscarinic acetylcholine receptor M4 (Homo sapiens, UniProt P08173); assay: Binding affinity to human muscarinic M4 receptor by radioligand displacement assay
T2 sequence (P08173 whole entry): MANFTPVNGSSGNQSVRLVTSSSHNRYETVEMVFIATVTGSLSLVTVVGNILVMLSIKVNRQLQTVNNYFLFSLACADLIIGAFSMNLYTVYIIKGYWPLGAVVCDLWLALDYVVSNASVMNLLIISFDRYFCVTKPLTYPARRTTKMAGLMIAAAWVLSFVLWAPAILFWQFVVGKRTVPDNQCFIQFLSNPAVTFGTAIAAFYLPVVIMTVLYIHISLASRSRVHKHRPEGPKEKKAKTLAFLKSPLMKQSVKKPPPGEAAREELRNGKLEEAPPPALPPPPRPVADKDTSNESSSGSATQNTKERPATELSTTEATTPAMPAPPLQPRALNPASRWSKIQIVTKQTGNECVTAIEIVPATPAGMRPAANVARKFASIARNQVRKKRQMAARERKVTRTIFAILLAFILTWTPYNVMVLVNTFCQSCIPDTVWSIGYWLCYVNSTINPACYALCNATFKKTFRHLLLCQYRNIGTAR

D(3) dopamine receptor = D(3) dopamine receptor (Homo sapiens, UniProt P35462); assay: Binding affinity to human dopamine D3 receptor by radioligand displacement assay
[5] = molecular target: T3, Muscarinic acetylcholine receptor M3 (Homo sapiens, UniProt P20309); assay: Binding affinity to human muscarinic M3 receptor by radioligand displacement assay
Target sequence in this assay (P20309 whole entry): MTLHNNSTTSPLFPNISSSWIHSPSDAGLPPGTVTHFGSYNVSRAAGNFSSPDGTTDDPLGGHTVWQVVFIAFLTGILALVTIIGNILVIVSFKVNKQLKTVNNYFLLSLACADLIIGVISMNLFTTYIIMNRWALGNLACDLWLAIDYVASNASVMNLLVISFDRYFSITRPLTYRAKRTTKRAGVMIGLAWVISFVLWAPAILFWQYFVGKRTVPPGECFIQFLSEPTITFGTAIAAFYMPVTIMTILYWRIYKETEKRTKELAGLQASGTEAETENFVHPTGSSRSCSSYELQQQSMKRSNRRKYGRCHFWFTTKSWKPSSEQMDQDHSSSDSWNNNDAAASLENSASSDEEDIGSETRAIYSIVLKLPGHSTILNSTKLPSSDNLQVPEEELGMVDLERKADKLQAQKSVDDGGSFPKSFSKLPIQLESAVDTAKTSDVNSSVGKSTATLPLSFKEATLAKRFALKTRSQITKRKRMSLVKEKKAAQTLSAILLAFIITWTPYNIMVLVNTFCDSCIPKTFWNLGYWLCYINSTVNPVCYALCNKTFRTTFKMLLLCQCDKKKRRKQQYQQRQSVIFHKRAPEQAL

[6] = molecular target: Kappa-type opioid receptor (Homo sapiens, UniProt P41145); assay: Binding affinity to kappa opioid receptor by radioligand displacement assay
[7] = molecular target: T4, Muscarinic acetylcholine receptor M5 (Homo sapiens) (UniProt P08912); assay: Agonist activity at human muscarinic M5 receptor expressed in BHK-21 cells assessed as increase of acetylcholine-induced calcium flux at 10 uM by FLIPR assay relative to acetylcholine; assay type: functional, cell-based
T4 sequence (whole entry): T1 sequence (P08912 whole entry)

Acetylcholinesterase = Acetylcholinesterase (Homo sapiens, UniProt P22303); assay: Binding affinity to human acetylcholine esterase by radioligand displacement assay
[8] = molecular target: T3, Muscarinic acetylcholine receptor M3; assay: Agonist activity at human muscarinic M3 receptor expressed in BHK-21 cells assessed as increase of acetylcholine-induced calcium flux at 10 uM by FLIPR assay relative to acetylcholine; assay type: functional, cell-based
Target sequence in this assay (P20309 whole entry, looked up): as the sequence (P20309 whole entry) above

[9] = molecular target: Neuropeptide Y receptor type 1 (Homo sapiens, UniProt P25929); assay: Binding affinity to human neuropeptide Y1 receptor by radioligand displacement assay
Mu-type opioid receptor = Mu-type opioid receptor (Homo sapiens, UniProt P35372); assay: Binding affinity to human mu opioid receptor agonist site by radioligand displacement assay
[10] = molecular target: Muscarinic acetylcholine receptor M1 (Homo sapiens, UniProt P11229, Y381A)
D(1A) dopamine receptor = D(1A) dopamine receptor (Homo sapiens, UniProt P21728); assay: Binding affinity to human dopamine D1 receptor by radioligand displacement assay
[11] = Binding affinity to central benzodiazepine receptor by radioligand displacement assay
Histamine H3 receptor = Histamine H3 receptor (Homo sapiens, UniProt Q9Y5N1); assay: Binding affinity to human histamine H3 receptor by radioligand displacement assay
Homo sapiens = species on record: Homo sapiens; assay: Hepatic blood flow in human; assay type: ADME, organism-based, Liver
[12] = Binding affinity to human delta2 opioid receptor by radioligand displacement assay
Adenosine receptor A1 = Adenosine receptor A1 (Homo sapiens, UniProt P30542); assay: Binding affinity to human adenosine A1 receptor by radioligand displacement assay
[13] = molecular target: 5-hydroxytryptamine receptor 4 (Homo sapiens, UniProt Q13639); assay: Binding affinity to human 5-HT4e receptor by radioligand displacement assay
[14] = molecular target: 5-hydroxytryptamine receptor 2A (Homo sapiens, UniProt P28223); assay: Binding affinity to human 5-HT2A agonist site receptor by radioligand displacement assay
Substance-K receptor = Substance-K receptor (Homo sapiens, UniProt P21452); assay: Binding affinity to human NK2 receptor by radioligand displacement assay
Mus musculus = assay: Reversal of 60 seconds delay-induced memory decay in C57Bl/6J mouse assessed as positive alteration at 0.31 to […], sc for 1 week by Y-maze test; assay type: functional, organism-based
[15] = molecular target: 5-hydroxytryptamine receptor 2C (Homo sapiens, UniProt P28335); assay: Binding affinity to human 5HT2C receptor agonist site by radioligand displacement assay
[16] = Binding affinity to voltage gated Na channel site 2 by radioligand displacement assay
[17] = Ratio of brain to plasma AUC in C57/6J mouse at 20 mg/kg, sc; assay type: ADME, organism-based; set-up: dose 20 mg/kg, route subcutaneous

Mu-type opioid receptor, sequence (P35372 whole entry): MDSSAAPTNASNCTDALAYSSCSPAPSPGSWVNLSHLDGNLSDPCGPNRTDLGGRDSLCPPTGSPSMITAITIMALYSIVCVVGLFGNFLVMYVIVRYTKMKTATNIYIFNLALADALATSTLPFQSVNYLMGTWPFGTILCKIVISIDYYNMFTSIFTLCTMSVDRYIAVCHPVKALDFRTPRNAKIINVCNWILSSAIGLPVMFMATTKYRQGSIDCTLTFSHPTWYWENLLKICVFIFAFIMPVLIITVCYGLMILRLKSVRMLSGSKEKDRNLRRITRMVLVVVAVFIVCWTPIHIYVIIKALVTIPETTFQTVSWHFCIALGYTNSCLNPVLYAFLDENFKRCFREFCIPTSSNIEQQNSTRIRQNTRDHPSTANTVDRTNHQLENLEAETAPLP
Adenosine receptor A1, sequence (P30542 whole entry): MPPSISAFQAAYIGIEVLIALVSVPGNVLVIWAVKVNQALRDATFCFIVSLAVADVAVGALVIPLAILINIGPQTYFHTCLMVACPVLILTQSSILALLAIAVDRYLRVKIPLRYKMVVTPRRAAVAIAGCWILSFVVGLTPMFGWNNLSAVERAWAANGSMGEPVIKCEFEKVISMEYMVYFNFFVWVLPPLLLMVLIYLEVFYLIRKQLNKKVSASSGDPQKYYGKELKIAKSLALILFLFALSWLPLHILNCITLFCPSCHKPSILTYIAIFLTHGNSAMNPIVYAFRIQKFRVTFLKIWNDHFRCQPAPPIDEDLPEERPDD
Kappa-type opioid receptor, sequence (P41145 whole entry): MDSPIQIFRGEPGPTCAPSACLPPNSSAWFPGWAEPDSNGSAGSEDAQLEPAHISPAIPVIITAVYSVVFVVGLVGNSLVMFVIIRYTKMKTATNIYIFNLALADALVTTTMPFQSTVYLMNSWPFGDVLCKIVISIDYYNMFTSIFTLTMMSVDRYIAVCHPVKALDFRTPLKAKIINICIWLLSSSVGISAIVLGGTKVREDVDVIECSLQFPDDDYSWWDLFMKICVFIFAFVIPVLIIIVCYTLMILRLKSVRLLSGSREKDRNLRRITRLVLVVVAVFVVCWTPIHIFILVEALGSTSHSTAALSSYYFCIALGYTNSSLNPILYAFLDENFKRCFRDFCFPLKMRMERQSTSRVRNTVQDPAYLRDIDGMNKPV
Histamine H3 receptor, sequence (Q9Y5N1 whole entry): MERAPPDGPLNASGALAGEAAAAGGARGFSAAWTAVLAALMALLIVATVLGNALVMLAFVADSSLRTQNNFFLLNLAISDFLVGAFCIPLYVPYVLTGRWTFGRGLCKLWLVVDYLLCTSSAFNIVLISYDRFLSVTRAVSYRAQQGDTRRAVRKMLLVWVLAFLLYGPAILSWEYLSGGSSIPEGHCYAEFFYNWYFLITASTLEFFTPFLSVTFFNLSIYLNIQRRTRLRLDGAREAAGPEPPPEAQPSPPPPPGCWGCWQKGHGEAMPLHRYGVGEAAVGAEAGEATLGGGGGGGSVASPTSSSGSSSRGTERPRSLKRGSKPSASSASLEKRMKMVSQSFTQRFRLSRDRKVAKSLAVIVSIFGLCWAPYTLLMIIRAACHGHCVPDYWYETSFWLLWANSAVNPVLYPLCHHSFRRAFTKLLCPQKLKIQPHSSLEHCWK
Acetylcholinesterase, sequence (P22303 whole entry): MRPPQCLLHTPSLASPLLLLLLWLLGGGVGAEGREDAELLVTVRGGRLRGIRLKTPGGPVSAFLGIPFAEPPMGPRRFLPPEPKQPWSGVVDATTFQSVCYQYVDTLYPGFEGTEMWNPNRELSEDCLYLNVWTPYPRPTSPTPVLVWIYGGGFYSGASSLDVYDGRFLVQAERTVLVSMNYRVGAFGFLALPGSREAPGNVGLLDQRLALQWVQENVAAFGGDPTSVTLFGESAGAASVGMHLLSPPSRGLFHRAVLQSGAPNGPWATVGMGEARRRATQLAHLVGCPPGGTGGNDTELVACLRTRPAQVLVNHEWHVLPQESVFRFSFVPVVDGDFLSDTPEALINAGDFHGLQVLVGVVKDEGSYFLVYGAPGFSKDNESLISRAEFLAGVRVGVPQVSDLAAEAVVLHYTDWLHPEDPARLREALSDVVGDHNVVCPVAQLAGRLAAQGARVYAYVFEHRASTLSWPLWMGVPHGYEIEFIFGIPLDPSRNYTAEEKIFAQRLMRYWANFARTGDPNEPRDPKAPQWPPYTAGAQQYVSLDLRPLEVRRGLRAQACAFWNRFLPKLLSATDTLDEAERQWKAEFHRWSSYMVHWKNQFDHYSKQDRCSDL
5-hydroxytryptamine receptor 2C, sequence (P28335 whole entry): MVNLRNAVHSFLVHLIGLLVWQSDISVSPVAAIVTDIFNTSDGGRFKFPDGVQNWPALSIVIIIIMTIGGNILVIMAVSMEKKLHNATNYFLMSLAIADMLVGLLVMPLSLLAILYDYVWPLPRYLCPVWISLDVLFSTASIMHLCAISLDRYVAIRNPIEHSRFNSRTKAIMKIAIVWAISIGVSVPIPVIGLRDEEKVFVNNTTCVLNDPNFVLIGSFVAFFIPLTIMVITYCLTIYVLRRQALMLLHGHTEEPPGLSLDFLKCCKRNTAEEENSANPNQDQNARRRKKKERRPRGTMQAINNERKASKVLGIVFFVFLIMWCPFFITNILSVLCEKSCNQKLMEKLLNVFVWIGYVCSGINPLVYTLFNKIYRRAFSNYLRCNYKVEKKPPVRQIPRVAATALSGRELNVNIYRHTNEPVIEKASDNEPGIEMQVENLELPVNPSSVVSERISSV
Substance-K receptor, sequence (P21452 whole entry): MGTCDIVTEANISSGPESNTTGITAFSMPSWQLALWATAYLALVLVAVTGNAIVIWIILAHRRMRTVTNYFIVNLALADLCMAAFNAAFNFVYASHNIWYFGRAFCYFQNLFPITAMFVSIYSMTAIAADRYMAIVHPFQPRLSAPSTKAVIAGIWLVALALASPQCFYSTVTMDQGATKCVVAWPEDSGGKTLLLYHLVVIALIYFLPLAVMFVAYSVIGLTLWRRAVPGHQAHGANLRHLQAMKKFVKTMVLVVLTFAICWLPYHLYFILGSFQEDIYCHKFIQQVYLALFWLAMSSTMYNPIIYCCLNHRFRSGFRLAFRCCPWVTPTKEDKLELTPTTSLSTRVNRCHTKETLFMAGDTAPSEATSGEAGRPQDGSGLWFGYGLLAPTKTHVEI
Neuropeptide Y receptor type 1, sequence (P25929 whole entry): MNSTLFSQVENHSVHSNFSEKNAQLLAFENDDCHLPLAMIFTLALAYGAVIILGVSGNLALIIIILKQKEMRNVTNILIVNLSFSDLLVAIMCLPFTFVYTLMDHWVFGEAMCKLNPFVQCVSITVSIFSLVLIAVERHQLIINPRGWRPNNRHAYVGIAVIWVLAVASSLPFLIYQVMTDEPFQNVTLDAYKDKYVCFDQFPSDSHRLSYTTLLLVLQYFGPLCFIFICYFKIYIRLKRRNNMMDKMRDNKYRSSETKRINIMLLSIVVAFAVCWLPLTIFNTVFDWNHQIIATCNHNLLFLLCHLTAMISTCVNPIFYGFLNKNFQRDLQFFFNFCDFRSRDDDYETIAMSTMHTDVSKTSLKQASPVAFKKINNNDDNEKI
D(1A) dopamine receptor, sequence (P21728 whole entry): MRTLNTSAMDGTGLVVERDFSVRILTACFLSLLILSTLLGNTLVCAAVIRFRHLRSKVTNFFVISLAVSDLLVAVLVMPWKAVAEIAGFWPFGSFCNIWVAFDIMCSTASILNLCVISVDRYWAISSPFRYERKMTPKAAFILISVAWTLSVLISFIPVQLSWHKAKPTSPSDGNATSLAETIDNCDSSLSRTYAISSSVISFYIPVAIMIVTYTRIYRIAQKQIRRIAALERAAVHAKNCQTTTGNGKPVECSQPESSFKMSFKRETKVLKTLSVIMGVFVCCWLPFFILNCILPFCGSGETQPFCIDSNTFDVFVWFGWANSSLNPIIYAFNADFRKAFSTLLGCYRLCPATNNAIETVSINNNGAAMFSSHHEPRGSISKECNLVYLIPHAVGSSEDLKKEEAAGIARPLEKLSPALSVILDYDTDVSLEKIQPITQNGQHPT
5-hydroxytryptamine receptor 4, sequence (Q13639 whole entry): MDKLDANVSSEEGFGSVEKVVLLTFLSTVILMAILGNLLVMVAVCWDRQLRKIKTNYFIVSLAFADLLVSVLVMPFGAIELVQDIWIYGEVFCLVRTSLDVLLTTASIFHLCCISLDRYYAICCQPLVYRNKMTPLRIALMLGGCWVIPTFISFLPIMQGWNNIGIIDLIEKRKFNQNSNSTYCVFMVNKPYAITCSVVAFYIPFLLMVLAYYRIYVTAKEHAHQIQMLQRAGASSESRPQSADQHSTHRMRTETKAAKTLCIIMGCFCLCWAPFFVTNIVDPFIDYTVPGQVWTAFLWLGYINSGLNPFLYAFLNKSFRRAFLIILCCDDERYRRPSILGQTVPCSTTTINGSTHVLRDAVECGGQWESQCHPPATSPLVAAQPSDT

O=C(Cc1ccccc1)NC1CCN(CCCN2C(=O)COc3ccccc32)CC1 showed a Ki [1] of at least 1 µM, a Ki [2] of at least 1 µM and an Activity (Brain) of 70%. For the same compound, the Ki [3] was 8.9 µM, the Ki [4] was at least 1 µM and the Ki (D(3) dopamine receptor) was at least 1 µM. The Ki [5] was at least 1 µM, the Ki [6] was at least 1 µM and the Emax [7] was 1%. It also gave a Ki (Acetylcholinesterase) of at least 1 µM, an Emax [8] of 1% and a Ki [9] of at least 1 µM. The Ki (Mu-type opioid receptor) was at least 1 µM, the EC50 [10] was 0.097 µM and the Ki (D(1A) dopamine receptor) was at least 1 µM. For the same compound, the Ki [11] was at least 1 µM, the Ki (Histamine H3 receptor) was at least 1 µM and the QH (Homo sapiens) was 1.4 L/min. For the same compound, the Ki [12] was at least 1 µM, the Ki (Adenosine receptor A1) was at least 1 µM and the Ki [13] was at least 1 µM. The Ki [14] was at least 1 µM, the Ki (Substance-K receptor) was at least 1 µM and the Activity (Mus musculus) was “inactive”. The Ki [15] was at least 1 µM, the Ki [16] was at least 1 µM and the Kp [17] was 0.35.

From ChEMBL document CHEMBL1240489, “Discovery of N-{1-[3-(3-oxo-2,3-dihydrobenzo[1,4]oxazin-4-yl)propyl]piperidin-4-yl}-2-phenylacetamide (Lu AE51090): an allosteric muscarinic M1 receptor agonist with unprecedented selectivity and procognitive potential” (J Med Chem, 2010)
